Laboratory results from patent US11952577B2, “Yarrowia lipolytica yeast strains expressing an HMG-CoA reductase having increased activity or expression” (NUCELIS LLC, priority 2009, dated 2024).

Columns and labels:
[1] = tested on: Yarrowia lipolytica ATCC 90904; test: Cultivation in supplemented CYM001 media, lipid and squalene production; assay type: cell-based; settings: 30′C, 300 rpm, 120 h
Procedure: For example, Yarrowia lipolytica ATCC 90904 was cultivated in high Carbon/Nitrogen ratio media (C/N=420, Li. Y-H., Liu, B., Zhao, Z-B., and Bai. F-W. 2006 “Optimized Culture Medium and Fermentation Conditions for Lipid Production by Rhodosporidium toruloides” Chinese Journal of Biotechnology 22(4): 650-656) (hereinafter “CYM001 Media”) supplemented with 0 to 50 μg/ml terbinafine at 30′C, 300 rpm for 120 h.
In another example, Yarrowia lipolytica ATCC 90904 was cultivated in CYM001 media supplemented with 0 to 50 μg/ml Oleic acid at 30′C, 300 rpm for 120 h.
In a further example, Yarrowia lipolytica ATCC 90904 was cultivated in CYM001 media supplemented with 0 to 200 μM clethodim at 30′C, 300 rpm for 120 h.

[2] = tested on: Yarrowia lipolytica strain polg (Yeastern); test: as above; assay type: cell-based; settings: 30′C, 300 rpm, 120 h
From the text: Various Yarrowia lipolylica strains are used for lipid and squalene production including ATCC 20688, ATCC 90811, ATCC 90904, ATCC 90812, ATCC MYA-2613, and Yeastern polg. For example, Yarrowia lipolytica strain polg (Yeastern) was cultivated in high Carbon/Nitrogen ratio media (C/N=420, Li, Y-H., Liu. B., Zhao. Z-B., and Bai, F-W. 2006 “Optimized Culture Medium and Fermentation Conditions for Lipid Production by Rhodosporidium toruloides” Chinese Journal of Biotechnology 22(4): 650-656) (hereinafter “CYM001 Media”) supplemented with 0 to 50 μg/ml terbinafine at 30′C, 300 rpm for 120 h.

CCCCCCCC/C=C\CCCCCCCC(=O)O [Oleic acid]
improvement of lipid accumulation in lipid/CDW over no supplementation ([1]; 10 μl/ml): 10 fold

CCSC(C)CC1CC(=O)C(/C(CC)=N/OC/C=C/Cl)=C(O)C1 (centres unmarked) [clethodim]
increase in the yield (mg) of squalene per 60-ml flask ([1]; 200 μM): 60 fold

CN(C/C=C/C#CC(C)(C)C)Cc1cccc2ccccc12 [terbinafine]
total lipid as squalene ([1]; 12.5 μg/ml or higher): up to 18.5%
total lipid as squalene ([2]; 12.5 μg/ml or higher, CYM001 media): up to 38%
total lipid/Cell Dry weight ([2]; terbinafine-supplemented CYM001 media): up to 51%
